# Measurements from PubChem BioAssay AID1259407 (Chemical Carcinogenesis Research Information System (CCRIS), 2018).
# Activity calls are given as the source filed them. The rule behind the calls is not given here.
# System: CCRIS mutagenicity, Ames/micronucleus/aberration tests
# Test: CCRIS mutagenicity studies
# [1] = Test System: AMES SALMONELLA TYPHIMURIUM, Strain/Indicator: TA100, Metabolic Activation: RAT, LIVER, S-9, Method: PREINCUBATION
# [2] = Test System: AMES SALMONELLA TYPHIMURIUM, Strain/Indicator: TA100, Metabolic Activation: NONE, Method: STANDARD PLATE
# [3] = Test System: AMES SALMONELLA TYPHIMURIUM, Strain/Indicator: TA98, Metabolic Activation: NONE, Method: PREINCUBATION
# [4] = Test System: AMES SALMONELLA TYPHIMURIUM, Strain/Indicator: TA100, Metabolic Activation: NONE, Method: PREINCUBATION
# [5] = Test System: AMES SALMONELLA TYPHIMURIUM, Strain/Indicator: TA1537, Metabolic Activation: NONE, Method: PREINCUBATION
compound,measurement,setting,value
CC(=O)CN(CC(C)O)N=O (stereo not given),mutagenic call,"Test System: AMES SALMONELLA TYPHIMURIUM, Strain/Indicator: TA100, Metabolic Activation: HAMSTER, LIVER, S-9, 3-METHYLCHOLANTHRENE, Method: PREINCUBATION",active; positive
same,mutagenic call,"Test System: AMES SALMONELLA TYPHIMURIUM, Strain/Indicator: TA100, Metabolic Activation: HAMSTER, LIVER, S-9, PHENOBARBITAL, Method: PREINCUBATION",active; positive
same,mutagenic call,"Test System: AMES SALMONELLA TYPHIMURIUM, Strain/Indicator: TA100, Metabolic Activation: HAMSTER, LIVER, S-9, Method: PREINCUBATION",active; positive
same,mutagenic call,"Test System: AMES SALMONELLA TYPHIMURIUM, Strain/Indicator: TA100, Metabolic Activation: HUMAN, LIVER, S-9, Method: PREINCUBATION",active; positive
same,mutagenic call,"Test System: AMES SALMONELLA TYPHIMURIUM, Strain/Indicator: TA100, Metabolic Activation: MONKEY, LIVER, S-9, Method: PREINCUBATION",active; positive
same,mutagenic call,"Test System: AMES SALMONELLA TYPHIMURIUM, Strain/Indicator: TA100, Metabolic Activation: MOUSE, LIVER, S-9, 3-METHYLCHOLANTHRENE, Method: PREINCUBATION",active; positive
same,mutagenic call,"Test System: AMES SALMONELLA TYPHIMURIUM, Strain/Indicator: TA100, Metabolic Activation: MOUSE, LIVER, S-9, PHENOBARBITAL, Method: PREINCUBATION",active; positive
same,mutagenic call,"Test System: AMES SALMONELLA TYPHIMURIUM, Strain/Indicator: TA100, Metabolic Activation: MOUSE, LIVER, S-9, Method: PREINCUBATION",active; positive
same,mutagenic call,"Test System: AMES SALMONELLA TYPHIMURIUM, Strain/Indicator: TA100, Metabolic Activation: RABBIT, LIVER, S-9, Method: PREINCUBATION",active; positive
same,mutagenic call,"Test System: AMES SALMONELLA TYPHIMURIUM, Strain/Indicator: TA100, Metabolic Activation: RAT, LIVER, CYTOSOL, PCB, Method: PREINCUBATION",active; positive
same,mutagenic call,"Test System: AMES SALMONELLA TYPHIMURIUM, Strain/Indicator: TA100, Metabolic Activation: RAT, LIVER, MICROSOMES AND CYTOSOL, PCB, Method: PREINCUBATION",active; positive
same,mutagenic call,"Test System: AMES SALMONELLA TYPHIMURIUM, Strain/Indicator: TA100, Metabolic Activation: RAT, LIVER, MICROSOMES AND G6PDH, PCB, Method: PREINCUBATION",active; positive
same,mutagenic call,"Test System: AMES SALMONELLA TYPHIMURIUM, Strain/Indicator: TA100, Metabolic Activation: RAT, LIVER, MICROSOMES, PCB, Method: PREINCUBATION",active; positive
same,mutagenic call,"Test System: AMES SALMONELLA TYPHIMURIUM, Strain/Indicator: TA100, Metabolic Activation: RAT, LIVER, S-9 (HEATED), PCB, Method: PREINCUBATION",active; positive
same,mutagenic call,"Test System: AMES SALMONELLA TYPHIMURIUM, Strain/Indicator: TA100, Metabolic Activation: RAT, LIVER, S-9, 3-METHYLCHOLANTHRENE, Method: PREINCUBATION",active; positive
same,mutagenic call,"Test System: AMES SALMONELLA TYPHIMURIUM, Strain/Indicator: TA100, Metabolic Activation: RAT, LIVER, S-9, PCB, Method: PREINCUBATION",active; positive
same,mutagenic call,"Test System: AMES SALMONELLA TYPHIMURIUM, Strain/Indicator: TA100, Metabolic Activation: RAT, LIVER, S-9, PHENOBARBITAL, Method: PREINCUBATION",active; positive
same,mutagenic call,[1],active; positive
same,mutagenic call,"Test System: AMES SALMONELLA TYPHIMURIUM, Strain/Indicator: TA100, Metabolic Activation: RAT, LIVER, S-9 WITHOUT NADP+, PCB, Method: PREINCUBATION",active; positive
same,mutagenic call,"Test System: AMES SALMONELLA TYPHIMURIUM, Strain/Indicator: TA100, Method: PREINCUBATION",active; positive
same,mutagenic call,"Test System: CHINESE HAMSTER V-79, Strain/Indicator: V-79/OUABAIN, Metabolic Activation: HAMSTER, HEPATOCYTES, Method: CELL-MEDIATED",active; positive
OCCN(CCO)c1ccc2ccccc2c1,mutagenic call,[2],inactive; negative
same,mutagenic call,"Test System: AMES SALMONELLA TYPHIMURIUM, Strain/Indicator: TA100, Metabolic Activation: RAT, LIVER, S-9, AROCLOR (10%), Method: STANDARD PLATE",active; positive
CC1CNCC(C)O1 (stereo not given),mutagenic call,"Test System: AMES SALMONELLA TYPHIMURIUM, Strain/Indicator: TA98, Metabolic Activation: HAMSTER, LIVER, S-9, AROCLOR 1254, Method: PREINCUBATION",inactive; negative
same,mutagenic call,[3],inactive; negative
same,mutagenic call,"Test System: AMES SALMONELLA TYPHIMURIUM, Strain/Indicator: TA98, Metabolic Activation: RAT, LIVER, S-9, AROCLOR 1254, Method: PREINCUBATION",inactive; negative
same,mutagenic call,"Test System: AMES SALMONELLA TYPHIMURIUM, Strain/Indicator: TA100, Metabolic Activation: HAMSTER, LIVER, S-9, AROCLOR 1254, Method: PREINCUBATION",inactive; negative
same,mutagenic call,[4],inactive; negative
same,mutagenic call,"Test System: AMES SALMONELLA TYPHIMURIUM, Strain/Indicator: TA100, Metabolic Activation: RAT, LIVER, S-9, AROCLOR 1254, Method: PREINCUBATION",inactive; negative
same,mutagenic call,"Test System: AMES SALMONELLA TYPHIMURIUM, Strain/Indicator: TA1537, Metabolic Activation: HAMSTER, LIVER, S-9, AROCLOR 1254, Method: PREINCUBATION",inactive; negative
same,mutagenic call,[5],inactive; negative
same,mutagenic call,"Test System: AMES SALMONELLA TYPHIMURIUM, Strain/Indicator: TA1537, Metabolic Activation: RAT, LIVER, S-9, AROCLOR 1254, Method: PREINCUBATION",inactive; negative
O=C(Cl)c1cccc(Cl)c1,mutagenic call,[3],inactive; negative
same,mutagenic call,"Test System: AMES SALMONELLA TYPHIMURIUM, Strain/Indicator: TA98, Metabolic Activation: RAT LIVER S-9, PCB, Method: PREINCUBATION",active; positive
same,mutagenic call,[4],inactive; negative
same,mutagenic call,"Test System: AMES SALMONELLA TYPHIMURIUM, Strain/Indicator: TA100, Metabolic Activation: RAT LIVER S-9, PCB, Method: PREINCUBATION",active; positive
same,mutagenic call,"Test System: AMES SALMONELLA TYPHIMURIUM, Strain/Indicator: TA104, Metabolic Activation: NONE, Method: PREINCUBATION",inactive; negative
same,mutagenic call,"Test System: AMES SALMONELLA TYPHIMURIUM, Strain/Indicator: TA104, Metabolic Activation: RAT LIVER S-9, PCB, Method: PREINCUBATION",active; positive
same,mutagenic call,"Test System: E.COLI, Strain/Indicator: WP2 UVRA, Metabolic Activation: NONE, Method: PREINCUBATION",inactive; negative
same,mutagenic call,"Test System: E.COLI, Strain/Indicator: WP2 UVRA, Metabolic Activation: RAT LIVER S-9, PCB, Method: PREINCUBATION",active; positive
[O]=[Mg],mutagenic call,"Test System: AMES SALMONELLA TYPHIMURIUM, Strain/Indicator: TA97, Metabolic Activation: NONE, Method: PREINCUBATION",inactive; negative
same,mutagenic call,"Test System: AMES SALMONELLA TYPHIMURIUM, Strain/Indicator: TA97, Metabolic Activation: S-9, Method: PREINCUBATION",inactive; negative
same,mutagenic call,[4],inactive; negative
same,mutagenic call,[1],inactive; negative
same,mutagenic call,"Test System: AMES SALMONELLA TYPHIMURIUM, Strain/Indicator: TA102, Metabolic Activation: NONE, Method: PREINCUBATION",inactive; negative
same,mutagenic call,"Test System: AMES SALMONELLA TYPHIMURIUM, Strain/Indicator: TA102, Metabolic Activation: S-9, Method: PREINCUBATION",inactive; negative
C1CCC2(CC1)CO2,mutagenic call,[2],inactive; negative
O=S(=O)(O)O.[NH-]CC1(C[NH-])CCCCC1.[Pt+2],mutagenic call,"Test System: CHINESE HAMSTER, Strain/Indicator: V-79/6-THIOGUANINE (HGPRT), Metabolic Activation: NONE, Method: STANDARD PLATE",active; positive
O.[Cu].[Cu],mutagenic call,[3],inactive; negative
same,mutagenic call,"Test System: AMES SALMONELLA TYPHIMURIUM, Strain/Indicator: TA98, Metabolic Activation: RAT, LIVER, S-9, KC 500, Method: PREINCUBATION",inactive; negative
same,mutagenic call,[4],inactive; negative
same,mutagenic call,"Test System: AMES SALMONELLA TYPHIMURIUM, Strain/Indicator: TA100, Metabolic Activation: RAT, LIVER, S-9, KC 500, Method: PREINCUBATION",inactive; negative
same,mutagenic call,"Test System: AMES SALMONELLA TYPHIMURIUM, Strain/Indicator: TA1535, Metabolic Activation: NONE, Method: PREINCUBATION",inactive; negative
same,mutagenic call,"Test System: AMES SALMONELLA TYPHIMURIUM, Strain/Indicator: TA1535, Metabolic Activation: RAT, LIVER, S-9, KC 500, Method: PREINCUBATION",inactive; negative
same,mutagenic call,[5],inactive; negative
same,mutagenic call,"Test System: AMES SALMONELLA TYPHIMURIUM, Strain/Indicator: TA1537, Metabolic Activation: RAT, LIVER, S-9, KC 500, Method: PREINCUBATION",inactive; negative
same,mutagenic call,"Test System: AMES SALMONELLA TYPHIMURIUM, Strain/Indicator: TA1538, Metabolic Activation: NONE, Method: PREINCUBATION",inactive; negative
same,mutagenic call,"Test System: AMES SALMONELLA TYPHIMURIUM, Strain/Indicator: TA1538, Metabolic Activation: RAT, LIVER, S-9, KC 500, Method: PREINCUBATION",inactive; negative
same,mutagenic call,"Test System: E. COLI, Strain/Indicator: WP2 UVRA, Metabolic Activation: NONE, Method: PREINCUBATION",inactive; negative
same,mutagenic call,"Test System: E. COLI, Strain/Indicator: WP2 UVRA, Metabolic Activation: RAT, LIVER, S-9, KC 500, Method: PREINCUBATION",inactive; negative
